Laboratory results published in US8637499B2, “Benzoxazepines as inhibitors of PI3K/mTOR and methods of their use and manufacture” (Exelixis, Inc., priority 2009, dated 2014).

How the values were obtained:
[1] = biological target: PI3Kα (Homo sapiens, UniProt P42336); test: PI3K Biochemical Assays (ATP consumption, luciferase-luciferin chemiluminescence); settings: PI3Kα 1.5 nM, ATP 1 μM, PIP2 10 μM; percent of ATP consumed
Summary of the method: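 Kinase activity read as percent ATP consumed via luciferase-luciferin chemiluminescence. 1.5 nM enzyme, 1 μM ATP, 10 μM PIP2 in 50 mM Tris pH 7.5, 1 mM EGTA, 10 mM MgCl2, 1 mM DTT, 0.03% CHAPS; ~2 h at ambient temperature, ATP consumption kept to 40-60%.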

[2] = biological target: mTORC1 (mTOR/GbL/Raptor) (Homo sapiens, UniProt P42345); test: mTOR/GbL/Raptor (mTORC1) ELISA Assay; assay type: biochemical; settings: 0.2 nM mTORC1, 10 μM ATP, 50 nM NHis-tagged 4E-BP1; phosphorylation of 4E-BP1; read-out: IC50
Summary of the method: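 mTORC1 (0.2 nM) phosphorylated NHis-tagged 4E-BP1 (50 nM) with 10 μM ATP in 20 mM Hepes pH 7.2, 10 mM MnCl2, for 120 min at ambient temperature. Product was captured on Ni-chelate plates and detected with anti-phospho-4E-BP1 plus HRP secondary antibody by chemiluminescence.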

Sequence of PI3Kα (P42336 whole entry): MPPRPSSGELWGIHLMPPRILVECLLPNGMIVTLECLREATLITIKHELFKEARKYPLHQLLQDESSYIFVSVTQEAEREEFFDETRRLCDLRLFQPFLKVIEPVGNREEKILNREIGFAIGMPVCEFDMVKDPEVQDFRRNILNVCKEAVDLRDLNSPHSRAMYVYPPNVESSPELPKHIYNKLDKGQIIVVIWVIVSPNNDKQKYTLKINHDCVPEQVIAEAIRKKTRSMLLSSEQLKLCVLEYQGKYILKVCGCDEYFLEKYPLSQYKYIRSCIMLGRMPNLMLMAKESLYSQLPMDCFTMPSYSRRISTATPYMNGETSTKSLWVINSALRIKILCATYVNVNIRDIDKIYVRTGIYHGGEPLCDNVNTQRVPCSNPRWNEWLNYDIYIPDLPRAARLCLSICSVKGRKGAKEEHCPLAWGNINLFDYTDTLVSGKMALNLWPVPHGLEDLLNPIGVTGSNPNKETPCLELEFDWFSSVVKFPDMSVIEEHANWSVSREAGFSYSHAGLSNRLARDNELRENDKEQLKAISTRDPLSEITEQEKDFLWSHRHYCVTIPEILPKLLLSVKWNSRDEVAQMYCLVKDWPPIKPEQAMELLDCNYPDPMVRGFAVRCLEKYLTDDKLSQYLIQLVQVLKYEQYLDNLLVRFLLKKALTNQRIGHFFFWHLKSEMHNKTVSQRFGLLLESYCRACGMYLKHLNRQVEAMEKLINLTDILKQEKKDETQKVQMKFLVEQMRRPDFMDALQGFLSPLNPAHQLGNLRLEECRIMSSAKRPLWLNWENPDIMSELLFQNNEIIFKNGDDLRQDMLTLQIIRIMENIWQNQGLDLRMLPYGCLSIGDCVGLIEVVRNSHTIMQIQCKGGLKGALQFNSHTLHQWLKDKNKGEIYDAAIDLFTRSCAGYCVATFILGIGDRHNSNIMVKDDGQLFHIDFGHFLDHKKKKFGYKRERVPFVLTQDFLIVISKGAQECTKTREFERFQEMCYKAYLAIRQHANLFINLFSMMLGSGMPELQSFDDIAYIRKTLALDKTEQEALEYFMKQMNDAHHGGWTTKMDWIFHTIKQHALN
Sequence of PI3Kα (P27986 whole entry partner): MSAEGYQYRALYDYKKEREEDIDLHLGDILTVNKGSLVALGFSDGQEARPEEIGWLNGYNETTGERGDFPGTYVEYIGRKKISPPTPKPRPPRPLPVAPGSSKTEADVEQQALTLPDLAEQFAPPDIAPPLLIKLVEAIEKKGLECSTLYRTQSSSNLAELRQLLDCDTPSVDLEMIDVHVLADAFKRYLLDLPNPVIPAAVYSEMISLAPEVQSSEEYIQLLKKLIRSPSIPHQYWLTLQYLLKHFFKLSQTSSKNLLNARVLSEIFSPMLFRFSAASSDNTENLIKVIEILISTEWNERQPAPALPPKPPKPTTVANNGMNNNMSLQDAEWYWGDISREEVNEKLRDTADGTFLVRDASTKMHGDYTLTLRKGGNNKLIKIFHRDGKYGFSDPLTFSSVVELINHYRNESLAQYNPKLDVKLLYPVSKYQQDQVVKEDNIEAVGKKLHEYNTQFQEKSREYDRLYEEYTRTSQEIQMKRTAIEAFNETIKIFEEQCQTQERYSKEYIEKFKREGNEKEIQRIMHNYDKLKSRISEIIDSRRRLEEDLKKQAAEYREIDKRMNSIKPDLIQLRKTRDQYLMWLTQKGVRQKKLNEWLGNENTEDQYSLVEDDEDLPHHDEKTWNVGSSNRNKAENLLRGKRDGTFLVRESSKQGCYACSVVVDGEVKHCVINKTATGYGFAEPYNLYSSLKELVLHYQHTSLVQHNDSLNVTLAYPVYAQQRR

IC50 [1] [nM]	IC50 [2] [nM]	Compound
≤ 75	≤ 50	COC(=O)Nc1nc2ncc(-c3ccc4c(c3)CN(C(=O)N3CCC(C(C)(F)F)CC3)CCO4)cc2[nH]1 [Compound 34, methyl [6-(4-{[4-(1,1-difluoroethyl)piperidin-1-yl]carbonyl}-2,3,4,5-tetrahydro-1,4-benzoxazepin-7-yl)-1H-imidazo[4,5-b]pyridin-2-yl]carbamate]
≤ 75	≤ 50	COC(=O)Nc1nc2ncc(-c3ccc4c(c3)CN(C(=O)N3CCC(CCF)CC3)CCO4)cc2[nH]1 [Compound 35, methyl [6-(4-{[4-(2-fluoroethyl)piperidin-1-yl]carbonyl}-2,3,4,5-tetrahydro-1,4-benzoxazepin-7-yl)-1H-imidazo[4,5-b]pyridin-2-yl]carbamate]
≤ 75	≤ 50	COC(=O)Nc1nc2ncc(-c3ccc4c(c3)CN(C(=O)N3CCC(CF)CC3)CCO4)cc2[nH]1 [Compound 36, methyl [6-(4-{[4-(fluoromethyl)piperidin-1-yl]carbonyl}-2,3,4,5-tetrahydro-1,4-benzoxazepin-7-yl)-1H-imidazo[4,5-b]pyridin-2-yl]carbamate]
≤ 75	50 to 250	COC(=O)Nc1nc2ncc(-c3ccc4c(c3)CN(C(=O)N3CCC(=O)CC3c3ccc(F)cc3)CCO4)cc2[nH]1 (stereo not shown) [Compound 37, methyl [6-(4-{[2-(4-fluorophenyl)-4-oxopiperidin-1-yl]carbonyl}-2,3,4,5-tetrahydro-1,4-benzoxazepin-7-yl)-1H-imidazo[4,5-b]pyridin-2-yl]carbamate]
75 to 200	50 to 250	COC(=O)Nc1nc2ncc(-c3ccc4c(c3)CN(C(=O)N3CCC(O)(CF)CC3)CCO4)cc2[nH]1 [Compound 38, methyl [6-(4-{[4-(fluoromethyl)-4-hydroxypiperidin-1-yl]carbonyl}-2,3,4,5-tetrahydro-1,4-benzoxazepin-7-yl)-1H-imidazo[4,5-b]pyridin-2-yl]carbamate]
≤ 75	50 to 250	COC(=O)Nc1nc2ncc(-c3ccc4c(c3)CN(C(=O)N3CCC(=O)CC3c3ccc(F)c(F)c3)CCO4)cc2[nH]1 (stereo not shown) [Compound 39, methyl [6-(4-{[2-(3,4-difluorophenyl)-4-oxopiperidin-1-yl]carbonyl}-2,3,4,5-tetrahydro-1,4-benzoxazepin-7-yl)-1H-imidazo[4,5-b]pyridin-2-yl]carbamate]
200 to 500	50 to 250	COC(=O)Nc1nc2ncc(-c3ccc4c(c3)CN(C(=O)N3CCC(C#N)CC3)CCO4)cc2[nH]1 [Compound 40, methyl (6-{4-[(4-cyanopiperidin-1-yl)carbonyl]-2,3,4,5-tetrahydro-1,4-benzoxazepin-7-yl}-1H-imidazo[4,5-b]pyridin-2-yl)carbamate]
≤ 75	≤ 50	COC(=O)Nc1nc2ncc(-c3ccc4c(c3)CN(C(=O)N3CCC(C)CC3)CCO4)cc2[nH]1 [Compound 41, methyl (6-{4-[(4-methylpiperidin-1-yl)carbonyl]-2,3,4,5-tetrahydro-1,4-benzoxazepin-7-yl}-1H-imidazo[4,5-b]pyridin-2-yl)carbamate]
≤ 75	≤ 50	CC(F)(F)C1CCN(C(=O)N2CCOc3ccc(-c4cnc5nc(N)[nH]c5c4)cc3C2)CC1 [Compound 42, 6-(4-{[4-(1,1-difluoroethyl)piperidin-1-yl]carbonyl}-2,3,4,5-tetrahydro-1,4-benzoxazepin-7-yl)-1H-imidazo[4,5-b]pyridin-2-amine]
75 to 200	≤ 50	Nc1nc2ncc(-c3ccc4c(c3)CN(C(=O)N3CCC(C(F)F)CC3)CCO4)cc2[nH]1 [Compound 43, 6-(4-{[4-(difluoromethyl)piperidin-1-yl]carbonyl}-2,3,4,5-tetrahydro-1,4-benzoxazepin-7-yl)-1H-imidazo[4,5-b]pyridin-2-amine]
≤ 75	≤ 50	Nc1nc2ncc(-c3ccc4c(c3)CN(C(=O)N3CCC(CCF)CC3)CCO4)cc2[nH]1 [Compound 44, 6-(4-{[4-(2-fluoroethyl)piperidin-1-yl]carbonyl}-2,3,4,5-tetrahydro-1,4-benzoxazepin-7-yl)-1H-imidazo[4,5-b]pyridin-2-amine]
≤ 75	≤ 50	Nc1nc2ncc(-c3ccc4c(c3)CN(C(=O)N3CCC(CF)CC3)CCO4)cc2[nH]1 [Compound 45, 6-(4-{[4-(fluoromethyl)piperidin-1-yl]carbonyl}-2,3,4,5-tetrahydro-1,4-benzoxazepin-7-yl)-1H-imidazo[4,5-b]pyridin-2-amine]
≤ 75	≤ 50	N#CC1CCN(C(=O)N2CCOc3ccc(-c4cnc5nc(N)[nH]c5c4)cc3C2)CC1 [Compound 46, 1-{[7-(2-amino-1H-imidazo[4,5-b]pyridin-6-yl)-2,3-dihydro-1,4-benzoxazepin-4(5H)-yl]carbonyl}piperidine-4-carbonitrile]
≤ 75	≤ 50	NC(=O)C1CCN(C(=O)N2CCOc3ccc(-c4cnc5nc(N)[nH]c5c4)cc3C2)CC1 [Compound 47, 1-{[7-(2-amino-1H-imidazo[4,5-b]pyridin-6-yl)-2,3-dihydro-1,4-benzoxazepin-4(5H)-yl]carbonyl}piperidine-4-carboxamide]
≤ 75	≤ 50	Nc1nc2ncc(-c3ccc4c(c3)CN(C(=O)N3CCC(=O)CC3c3cccc(F)c3)CCO4)cc2[nH]1 (stereo not shown) [Compound 48, 1-{[7-(2-amino-1H-imidazo[4,5-b]pyridin-6-yl)-2,3-dihydro-1,4-benzoxazepin-4(5H)-yl]carbonyl}-2-(3-fluorophenyl)piperidin-4-one]
≤ 75	≤ 50	Nc1nc2ncc(-c3ccc4c(c3)CN(C(=O)N3[C@@H]5CC[C@H]3C[C@](O)(C(F)(F)F)C5)CCO4)cc2[nH]1 [Compound 49, 8-{[7-(2-amino-1H-imidazo[4,5-b]pyridin-6-yl)-2,3-dihydro-1,4-benzoxazepin-4(5H)-yl]carbonyl}-3-(trifluoromethyl)-8-azabicyclo[3.2.1]octan-3-(endo)-ol]
500 to 1000	250 to 700	CC(=O)Nc1nc2ccc(-c3ccc4c(c3)CN(C(=O)N3CCC(CF)CC3)CCO4)cc2[nH]1 [Compound 50, N-[5-(4-{[4-(fluoromethyl)piperidin-1-yl]carbonyl}-2,3,4,5-tetrahydro-1,4-benzoxazepin-7-yl)-1H-benzimidazol-2-yl]acetamide]
200 to 500	50 to 250	Cc1nc2cc(-c3ccc4c(c3)CN(C(=O)N3CCC(=O)CC3c3cccc(F)c3)CCO4)cnc2[nH]1 (stereo not shown) [Compound 51, 2-(3-fluorophenyl)-1-{[7-(2-methyl-3H-imidazo[4,5-b]pyridin-6-yl)-2,3-dihydro-1,4-benzoxazepin-4(5H)-yl]carbonyl}piperidin-4-one]
200 to 500	50 to 250	O=C1CCN(C(=O)N2CCOc3ccc(-c4cnc5[nH]cnc5c4)cc3C2)C(c2cccc(F)c2)C1 (stereo not shown) [Compound 52, 2-(3-fluorophenyl)-1-{[7-(3H-imidazo[4,5-b]pyridin-6-yl)-2,3-dihydro-1,4-benzoxazepin-4(5H)-yl]carbonyl}piperidin-4-one]
≤ 75	≤ 50	O=C1CCN(C(=O)N2CCOc3ccc(-c4ccc(-c5ncc[nH]5)cc4)cc3C2)C(c2ccc(F)c(F)c2)C1 (stereo not shown) [Compound 53, 2-(3,4-difluorophenyl)-1-({7-[4-(1H-imidazol-2-yl)phenyl]-2,3-dihydro-1,4-benzoxazepin-4(5H)-yl}carbonyl)piperidin-4-one]
≤ 75	≤ 50	O=C1CCN(C(=O)N2CCOc3ccc(-c4ccc(-c5ncc[nH]5)cc4)cc3C2)C(c2ccc(F)cc2)C1 (stereo not shown) [Compound 54, 2-(4-fluorophenyl)-1-({7-[4-(1H-imidazol-2-yl)phenyl]-2,3-dihydro-1,4-benzoxazepin-4(5H)-yl}carbonyl)piperidin-4-one]
≤ 75	≤ 50	O=C1CCN(C(=O)N2CCOc3ccc(-c4ccc(-c5ncc[nH]5)cc4)cc3C2)C(c2cccc(F)c2)C1 (stereo not shown) [Compound 55, 2-(3-fluorophenyl)-1-({7-[4-(1H-imidazol-2-yl)phenyl]-2,3-dihydro-1,4-benzoxazepin-4(5H)-yl}carbonyl)piperidin-4-one]
≤ 75	≤ 50	O=C1CCN(C(=O)N2CCOc3ccc(-c4ccc(-c5ncc[nH]5)cc4)cc3C2)[C@@H](c2ccc(F)cc2)C1 [Compound 56, (2R)-2-(4-fluorophenyl)-1-({7-[4-(1H-imidazol-2-yl)phenyl]-2,3-dihydro-1,4-benzoxazepin-4(5H)-yl}carbonyl)piperidin-4-one]
≤ 75	≤ 50	O=C1CCN(C(=O)N2CCOc3ccc(-c4ccc(-c5ncc[nH]5)cc4)cc3C2)[C@H](c2ccc(F)cc2)C1 [Compound 57, (2S)-2-(4-fluorophenyl)-1-({7-[4-(1H-imidazol-2-yl)phenyl]-2,3-dihydro-1,4-benzoxazepin-4(5H)-yl}carbonyl)piperidin-4-one]
75 to 200	≤ 50	O=C(N1CCC(CF)CC1)N1CCOc2ccc(-c3ccc(-c4ncc[nH]4)cc3)cc2C1 [Compound 58, 4-{[4-(fluoromethyl)piperidin-1-yl]carbonyl}-7-[4-(1H-imidazol-2-yl)phenyl]-2,3,4,5-tetrahydro-1,4-benzoxazepine]
≤ 75	≤ 50	O=C(N1CCOc2ccc(-c3ccc(-c4ncc[nH]4)cc3)cc2C1)N1[C@@H]2CC[C@H]1C[C@](O)(C(F)(F)F)C2 [Compound 59, 8-({7-[4-(1H-imidazol-2-yl)phenyl]-2,3-dihydro-1,4-benzoxazepin-4(5H)-yl}carbonyl)-3-(trifluoromethyl)-8-azabicyclo[3.2.1]octan-3-(endo)-ol]
